In ChEMBL document CHEMBL3046607, “Synthesis and Herbicidal Activity of New 1-Alkyl-3-aryloxypyrazole-4-carboxamide Derivatives” (J Pestic Sci, 2004):
Calls of active or inactive are those of the source. The calls are words filed in the database; no cut-off is given here.

Legend:
Echinochloa oryzicola [1] = assay: Pre-emergence herbicidal activity against Echinochloa oryzicola at 500 g a.i/ha measured after 14 days; format: functional, organism-based
Elatine triandra [2] = assay: Pre-emergence herbicidal activity against Elatine triandra at 500 g a.i/ha measured after 14 days; format: functional, organism-based
Oryza sativa = assay: Phytotoxicity against Oryza sativa cv. Koshihikari (rice) at 500 g a.i/ha measured after 14 days; format: organism-based; settings: in vivo, 336 h
[3] = test system: Schoenoplectiella juncoides; assay: Post-emergence herbicidal activity against Schoenoplectiella juncoides assessed as bleaching of stem/leaf parts; format: functional, organism-based; further: test concentration or dose not given here
Ammannia multiflora [4] = assay: Pre-emergence herbicidal activity against Ammannia multiflora at 500 g a.i/ha measured after 14 days; format: functional, organism-based
Cyperus difformis [5] = assay: Pre-emergence herbicidal activity against Cyperus difformis at 500 g a.i/ha measured after 14 days; format: functional, organism-based
Pontederia vaginalis [6] = assay: Pre-emergence herbicidal activity against Monochoria vaginalis assessed as bleaching of stem/leaf parts; format: functional, organism-based
Cyperus difformis [7] = assay: Pre-emergence herbicidal activity against Cyperus difformis assessed as bleaching of stem/leaf parts; format: functional, organism-based
Echinochloa oryzicola [8] = assay: Post-emergence herbicidal activity against Echinochloa oryzicola assessed as bleaching of stem/leaf parts; format: functional, organism-based
Lindernia procumbens [9] = assay: Post-emergence herbicidal activity against Lindernia procumbens assessed as bleaching of stem/leaf parts; format: functional, organism-based; further: test concentration or dose not given here
Rotala indica [10] = assay: Pre-emergence herbicidal activity against Rotala indica at 500 g a.i/ha measured after 14 days; format: functional, organism-based
Echinochloa oryzicola [11] = assay: Pre-emergence herbicidal activity against Echinochloa oryzicola assessed as bleaching of stem/leaf parts; format: functional, organism-based
Pontederia vaginalis [12] = assay: Post-emergence herbicidal activity against Monochoria vaginalis assessed as bleaching of stem/leaf parts; format: functional, organism-based
[13] = test system: Schoenoplectiella juncoides; assay: Pre-emergence herbicidal activity against Schoenoplectiella juncoides assessed as bleaching of stem/leaf parts; format: functional, organism-based
Ammannia multiflora [14] = assay: Post-emergence herbicidal activity against Ammannia multiflora assessed as bleaching of stem/leaf parts; format: functional, organism-based
Rotala indica [15] = assay: Pre-emergence herbicidal activity against Rotala indica assessed as bleaching of stem/leaf parts; format: functional, organism-based
Lindernia procumbens [16] = assay: Pre-emergence herbicidal activity against Lindernia procumbens assessed as bleaching of stem/leaf parts; format: functional, organism-based
Cyperus difformis [17] = assay: Post-emergence herbicidal activity against Cyperus difformis assessed as bleaching of stem/leaf parts; format: functional, organism-based; further: test concentration or dose not given here
Elatine triandra [18] = assay: Post-emergence herbicidal activity against Elatine triandra assessed as bleaching of stem/leaf parts; format: functional, organism-based; further: test concentration or dose not given here
Ammannia multiflora [19] = assay: Pre-emergence herbicidal activity against Ammannia multiflora assessed as bleaching of stem/leaf parts; format: functional, organism-based
Elatine triandra [20] = assay: Pre-emergence herbicidal activity against Elatine triandra assessed as bleaching of stem/leaf parts; format: functional, organism-based
Lindernia procumbens [21] = assay: Pre-emergence herbicidal activity against Lindernia procumbens at 500 g a.i/ha measured after 14 days; format: functional, organism-based
Rotala indica [22] = assay: Post-emergence herbicidal activity against Rotala indica assessed as bleaching of stem/leaf parts; format: functional, organism-based
[23] = test system: Schoenoplectiella juncoides; assay: Pre-emergence herbicidal activity against Schoenoplectiella juncoides at 500 g a.i/ha measured after 14 days; format: functional, organism-based
Pontederia vaginalis [24] = assay: Pre-emergence herbicidal activity against Monochoria vaginalis at 500 g a.i/ha measured after 14 days; format: functional, organism-based

Cn1cc(NC(=O)c2ccc(F)cc2)c(Oc2cccc(C(F)(F)F)c2)n1
Activity (Echinochloa oryzicola [1]): inactive | Activity (Elatine triandra [2]): inactive | Activity (Oryza sativa): Non-toxic | Activity [3]: Active | Activity (Ammannia multiflora [4]): inactive | Activity (Cyperus difformis [5]): inactive | Activity (Pontederia vaginalis [6]): Active | Activity (Cyperus difformis [7]): Active | Activity (Echinochloa oryzicola [8]): Active | Activity (Lindernia procumbens [9]): Active | Activity (Rotala indica [10]): inactive | Activity (Echinochloa oryzicola [11]): Active | Activity (Pontederia vaginalis [12]): Active | Activity [13]: Active | Activity (Ammannia multiflora [14]): Active | Activity (Rotala indica [15]): Active | Activity (Lindernia procumbens [16]): Active | Activity (Cyperus difformis [17]): Active | Activity (Elatine triandra [18]): Active | Activity (Ammannia multiflora [19]): Active | Activity (Elatine triandra [20]): Active | Activity (Lindernia procumbens [21]): inactive | Activity (Rotala indica [22]): Active | Activity [23]: inactive | Activity (Pontederia vaginalis [24]): inactive

Cn1cc(C(=O)N2CCCC2)c(Oc2cccc(C(F)(F)F)c2)n1
Activity (Echinochloa oryzicola [1]): inactive | Activity (Elatine triandra [2]): inactive | Activity (Oryza sativa): Non-toxic | Activity [3]: Active | Activity (Ammannia multiflora [4]): inactive | Activity (Cyperus difformis [5]): inactive | Activity (Pontederia vaginalis [6]): Active | Activity (Cyperus difformis [7]): Active | Activity (Echinochloa oryzicola [8]): Active | Activity (Lindernia procumbens [9]): Active | Activity (Rotala indica [10]): inactive | Activity (Echinochloa oryzicola [11]): Active | Activity (Pontederia vaginalis [12]): Active | Activity [13]: Active | Activity (Ammannia multiflora [14]): Active | Activity (Rotala indica [15]): Active | Activity (Lindernia procumbens [16]): Active | Activity (Cyperus difformis [17]): Active | Activity (Elatine triandra [18]): Active | Activity (Ammannia multiflora [19]): Active | Activity (Elatine triandra [20]): Active | Activity (Lindernia procumbens [21]): inactive | Activity (Rotala indica [22]): Active | Activity [23]: inactive | Activity (Pontederia vaginalis [24]): inactive

Cn1cc(NC(=O)c2ccc(F)cc2F)c(OCc2cccc(C(F)(F)F)c2)n1
Activity (Echinochloa oryzicola [1]): Active | Activity (Elatine triandra [2]): Active | Activity (Oryza sativa): Non-toxic | Activity [3]: Active | Activity (Ammannia multiflora [4]): Active | Activity (Cyperus difformis [5]): Active | Activity (Pontederia vaginalis [6]): Active | Activity (Cyperus difformis [7]): Active | Activity (Echinochloa oryzicola [8]): Active | Activity (Lindernia procumbens [9]): Active | Activity (Rotala indica [10]): Active | Activity (Echinochloa oryzicola [11]): Active | Activity (Pontederia vaginalis [12]): Active | Activity [13]: Active | Activity (Ammannia multiflora [14]): Active | Activity (Rotala indica [15]): Active | Activity (Lindernia procumbens [16]): Active | Activity (Cyperus difformis [17]): Active | Activity (Elatine triandra [18]): Active | Activity (Ammannia multiflora [19]): Active | Activity (Elatine triandra [20]): Active | Activity (Lindernia procumbens [21]): Active | Activity (Rotala indica [22]): Active | Activity [23]: Active | Activity (Pontederia vaginalis [24]): Active
